Measured values: patent US9630949B2, “Oxoazetidine derivatives, process for the preparation thereof and use thereof in human medicine and in cosmetics” (GALDERMA RESEARCH & DEVELOPMENT, priority 2008, dated 2017)

Legend:
[1] = target: hMC1R (Homo sapiens (Human), UniProt Q01726); assay: Transactivation test: melanocortin receptors (pCRE-Luc luciferase reporter), hMC1R; assay type: cell-based; details: HEK293 transfected with pCRE-Luc and hMC1R; products tested alone (agonist), 6 h incubation; % activity vs NDP-MSH 10 nM; IA: inactive
Protocol: (§1) Transactivation Test: Melanocortin Receptors
(§2) HEK293 lines are transfected with the pCRE-Luc and hMC1R, hMC3R, hMC4R or hMC5R vectors. The cells are cultured at 37° C., 5% CO2, in DMEM medium supplemented with 10% of foetal calf serum.
(§3) In the presence of an activator (agonist), the melanocortin receptor will activate the cAMP pathway which, via the CRE-Luc vector, will result in the synthesis of luciferase. After the addition of a lysis buffer containing a luminescent substrate for luciferase, it will be possible to measure the luminescence proportional to the degree of activation or of inhibition of the receptor.
(§4) The products are solubilized at 10 mM in DMSO. They are tested in the form of dose-response at a final DMSO concentration of 0.1%. The range comprising 10 points and one zero begins at 10 μM with 4-fold dilutions. For testing agonists, the products are tested alone. For determining the behaviour of antagonists, the products of interest are tested in the presence of 1 nM NDP-MSH (reference agonist). The cells are seeded at a rate of 5000 cells per well (384 well plate) in serum-free DMEM medium, and incubated overnight at 37° C., 5% CO2.
(§5) The products and the reference ligand (NDP-MSH) are added the following day, and the plates are again incubated for 6 h at 37° C., 5% CO2. After the addition of lysis buffer containing luciferin, the plates are read on a Top-Count instrument. The results are standardized as % activity using the 100% (cells+NDP-MSH at 10 nM) and 0% (cells alone) controls. An EC50 is calculated for each product using the XLFit software. The results are given in nM.

[2] = target: hMC4R (Homo sapiens (Human), UniProt P32245); assay: Transactivation test: melanocortin receptors (pCRE-Luc luciferase reporter), hMC4R; assay type: cell-based; details: HEK293 transfected with pCRE-Luc and hMC4R; products tested alone (agonist), 6 h incubation; % activity vs NDP-MSH 10 nM; IA: inactive
Protocol: as §1, §2, §3, §4, §5

Chain of hMC1R (Q01726 whole entry): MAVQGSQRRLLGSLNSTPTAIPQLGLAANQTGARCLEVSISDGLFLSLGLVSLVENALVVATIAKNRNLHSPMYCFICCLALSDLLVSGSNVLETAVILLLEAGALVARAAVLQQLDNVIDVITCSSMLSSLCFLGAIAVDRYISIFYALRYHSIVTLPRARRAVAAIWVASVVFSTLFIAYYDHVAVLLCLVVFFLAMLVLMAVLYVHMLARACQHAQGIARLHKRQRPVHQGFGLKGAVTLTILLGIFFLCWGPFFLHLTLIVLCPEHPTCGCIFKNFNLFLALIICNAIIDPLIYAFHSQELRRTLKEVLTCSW
Chain of hMC4R (P32245 whole entry): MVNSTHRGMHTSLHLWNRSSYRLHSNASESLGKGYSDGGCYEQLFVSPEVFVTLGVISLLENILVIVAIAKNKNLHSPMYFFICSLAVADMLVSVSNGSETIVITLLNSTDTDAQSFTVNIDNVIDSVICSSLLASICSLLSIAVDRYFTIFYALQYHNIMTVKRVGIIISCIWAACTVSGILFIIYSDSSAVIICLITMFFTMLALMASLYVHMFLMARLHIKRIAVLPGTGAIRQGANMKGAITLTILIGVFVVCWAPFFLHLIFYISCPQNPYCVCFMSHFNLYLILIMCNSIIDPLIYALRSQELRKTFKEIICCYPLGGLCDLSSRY

Compound	EC50 [1] [µM]	EC50 [2] [µM]
CCCCCC1(c2ccccc2)CN(C(=O)[C@@H](Cc2ccc(Cl)cc2)NC(=O)CCc2c[nH]cn2)C1 [Compound 45, N-[(R)-1-(4-chlorobenzyl)-2-oxo-2-(3-pentyl-3-phenylazetidin-1-yl)ethyl]-3-(1H-imidazol-4-yl)propionamide]	2	2
CCCCOC1(c2ccc(F)cc2)CN(C(=O)[C@H](Cc2ccc(OC)cc2)NC(=O)[C@H](Cc2c[nH]cn2)NC(=O)c2ccccc2)C1 [Compound 8, N-[(S)-1-[(S)-2-[3-butoxy-3-(4-fluorophenyl)azetidin-1-yl]-1-(4-methoxybenzyl)-2-oxoethylcarbamoyl]-2-(1H-imidazol-4-yl)ethyl]benzamide]	0.12	4
CCCCOC1(c2ccccc2)CN(C(=O)[C@@H](Cc2ccc(OC)cc2)NC(=O)CCc2c[nH]cn2)C1 [Compound 36, N-[(R)-2-(3-butoxy-3-phenylazetidin-1-yl)-1-(4-methoxybenzyl)-2-oxoethyl]-3-(1H-imidazol-4-yl)propionamide]	1	3
CCCCOC1(c2ccccc2)CN(C(=O)[C@H](Cc2ccc(OC)cc2)NC(=O)[C@H](Cc2c[nH]cn2)NC(=O)c2ccccc2)C1 [Compound 3, N-[(S)-1-[(S)-2-(3-butoxy-3-phenylazetidin-1-yl)-1-(4-methoxybenzyl)-2-oxoethylcarbamoyl]-2-(1H-imidazol-4-yl)ethyl]benzamide]	0.06	4
COc1ccc(C[C@@H](NC(=O)CCc2nc[nH]c2C)C(=O)N2CC(OCC=C(C)C)(c3ccccc3C)C2)cc1 [Compound 80, N-[(R)-1-(4-Methoxybenzyl)-2-[3-(3-methylbut-2-enyloxy)-3-o-tolylazetidin-1-yl]-2-oxoethyl)-3-(5-methyl-1H-imidazol-4-yl)propionamide]	0.015	4
CCCCOC1(c2ccc(F)cc2)CN(C(=O)[C@@H](Cc2ccc(OC)cc2)NC(=O)CCc2c[nH]cn2)C1 [Compound 23, N-[(R)-2-[3-butoxy-3-(4-fluorophenyl)azetidin-1-yl]-1-(4-methoxybenzyl)-2-oxoethyl]-3-(1H-imidazol-4-yl)propionamide]	0.06	1
CCCCCC1(c2ccccc2)CN(C(=O)[C@@H](Cc2ccccc2)NC(=O)CCc2c[nH]cn2)C1 [Compound 47, N-[(R)-1-benzyl-2-oxo-2-(3-pentyl-3-phenylazetidin-1-yl)ethyl]-3-(1H-imidazol-4-yl)propionamide]	0.5	4
CCCCOC1(c2ccccc2)CN(C(=O)[C@@H](Cc2ccc(F)cc2)NC(=O)CCc2c[nH]cn2)C1 [Compound 33, N-[(R)-2-(3-butoxy-3-phenylazetidin-1-yl)-1-(4-fluorobenzyl)-2-oxoethyl]-3-(1H-imidazol-4-yl)propionamide]	0.5	2
COc1ccc(C[C@@H](NC(=O)CCc2c[nH]cn2)C(=O)N2CC(OCC3CCCCC3)(c3ccccc3C)C2)cc1 [Compound 77, N-[(R)-2-(3-Cyclohexylmethoxy-3-o-tolylazetidin-1-yl)-1-(4-methoxybenzyl)-2-oxoethyl]-3-(1H-imidazol-4-yl)propionamide]	0.12	2
CCCCOC1(c2ccccc2C)CN(C(=O)[C@H](Cc2ccc(OC)cc2)NC(=O)[C@H](Cc2c[nH]cn2)NC(=O)c2ccccc2)C1 [Compound 2, N-[(S)-1-[(S)-2-(3-butoxy-3-o-tolylazetidin-1-yl)-1-(4-methoxybenzyl)-2-oxoethylcarbamoyl]-2-(1H-imidazol-4-yl)ethyl]benzamide]	0.03	8
CCCCOC1(c2ccccc2C)CN(C(=O)C(NC(=O)CCc2c[nH]cn2)C(O)c2ccc(OC)cc2)C1 (stereo not shown) [Compound 73, N-[1-(3-Butoxy-3-o-tolylazetidine-1-carbonyl)-2-hydroxy-2-(4-methoxyphenyl)ethyl]-3-(1H-imidazol-4-yl)propionamide]	0.5	8
CCCCCC1(c2cccc(F)c2)CN(C(=O)[C@@H](Cc2ccc(OC)cc2)NC(=O)CCc2c[nH]cn2)C1 [Compound 55, N-[(R)-2-[3-(3-fluorophenyl)-3-pentylazetidin-1-yl]-1-(4-methoxybenzyl)-2-oxoethyl]-3-(1H-imidazol-4-yl)propionamide]	0.12	1
CCCCOC1(c2ccccc2C)CN(C(=O)[C@@H](Cc2ccc(OC)cc2)NC(=O)CCc2[nH]cnc2C)C1 [Compound 41, N-[(R)-2-(3-butoxy-3-o-tolylazetidin-1-yl)-1-(4-methoxybenzyl)-2-oxoethyl]-3-(5-methyl-3H-imidazol-4-yl)propionamide]	0.12	1
CC#CCC1(c2ccccc2C)CN(C(=O)[C@@H](Cc2ccc(OC)cc2)NC(=O)CCc2c[nH]cn2)C1 [Compound 75, N-[(R)-2-(3-But-2-ynyl-3-o-tolylazetidin-1-yl)-1-(4-methoxybenzyl)-2-oxoethyl]-3-(1H-imidazol-4-yl)propionamide]	0.06	4
CCCOC1(c2ccccc2C)CN(C(=O)[C@@H](Cc2ccc(OC)cc2)NC(=O)CCc2c[nH]cn2)C1 [Compound 22, N-[(R)-1-(4-methoxybenzyl)-2-oxo-2-(3-propoxy-3-o-tolylazetidin-1-yl)ethyl]-3-(1H-imidazol-4-yl)propionamide]	0.12	10
CCCCCC1(c2cc(F)ccc2F)CN(C(=O)[C@@H](Cc2ccc(OC)cc2)NC(=O)CCc2c[nH]cn2)C1 [Compound 60, N-[(R)-2-[3-(2,5-difluorophenyl)-3-pentylazetidin-1-yl]-1-(4-methoxybenzyl)-2-oxoethyl]-3-(1H-imidazol-4-yl)propionamide]	0.12	0.1
COc1ccc(C[C@@H](NC(=O)CCc2c[nH]cn2)C(=O)N2CC(OCC3CC3)(c3ccccc3C)C2)cc1 [Compound 20, N-[(R)-2-(3-cyclopropylmethoxy-3-o-tolylazetidin-1-yl)-1-(4-methoxybenzyl)-2-oxoethyl]-3-(1H-imidazol-4-yl)propionamide]	0.12	4
CCCCCC1(c2c(F)cccc2F)CN(C(=O)[C@@H](Cc2ccc(OC)cc2)NC(=O)CCc2c[nH]cn2)C1 [Compound 61, N-[(R)-2-[3-(2,6-difluorophenyl)-3-pentylazetidin-1-yl]-1-(4-methoxybenzyl)-2-oxoethyl]-3-(1H-imidazol-4-yl)propionamide]	0.12	0.1
CCCCCC1(c2ccccc2)CN(C(=O)[C@@H](Cc2ccc(OC)cc2)NC(=O)CCc2c[nH]cn2)C1 [Compound 26, N-[(R)-1-(4-methoxybenzyl)-2-oxo-2-(3-pentyl-3-phenylazetidin-1-yl)ethyl]-3-(1H-imidazol-4-yl)propionamide]	0.5	4
CCCCOC1(c2ccccc2C)CN(C(=O)C(Cc2ccc(OC)cc2)NC(=O)CC(CCC)c2c[nH]cn2)C1 (stereo not shown) [Compound 62, N-[2-(3-butoxy-3-o-tolylazetidin-1-yl)-1-(4-methoxybenzyl)-2-oxoethyl]-3-(1H-imidazol-4-yl)hexyramide]	–	0.5
CCCCOC1(c2ccccc2C)CN(C(=O)C(Cc2ccc(Cl)cc2Cl)NC(=O)CC(CCC)c2c[nH]cn2)C1 (stereo not shown) [Compound 65, N-[2-(3-butoxy-3-o-tolylazetidin-1-yl)-1-(2,4-dichlorobenzyl)-2-oxoethyl]-3-(1H-imidazol-4-yl)hexyramide]	–	0.1
